Test results from patent US20250073209A1, “COVALENT TARGETING OF RhoA FOR CANCER THERAPY” (The University of Hong Kong, priority 2023, published 2025).

Assays:
[1] = system: HCT116, HT29 and SW620 cells; assay: Immunoblotting of cell cycle checkpoint proteins; type: cell-based, human; conditions: HCT116, HT29 and SW620, 24 h
Protocol: Anti-RhoA (#2117), anti-GAPDH (#2118), anti-phosphoMLC (#3671), anti-MLC (#3672), anti-FLAG (#8146), anti-GFP (#2956), and anti-GST (#2624) were purchased from Cell Signaling Technology. Cells were washed with PBS and then harvested using cell lysis buffer (1% Triton X100, 10 mM beta glycerol phosphate, 10 mM sodium pyrophosphate, 40 mM HEPES, 4 mM EDTA, pH7.4) with 4% protease/phosphatase inhibitor cocktail (Pierce). Protein samples were quantified using BCA assays (Pierce), normalized and then boiled with 4× Laemmli sampling buffer in 95° C. for 5 mins. Samples were resolved in 10% polyacrylamide gel (Biorad) and then transferred onto PVDF membrane (Biorad) and blocked with blocking buffer (5% bovine serum albumin (BSA) in Tris-buffered saline with 0.1% Tween 20 (TBST)) for 1 h. Membrane was washed in TBST, followed by incubation with corresponding primary antibodies (diluted 1:1000 in 5% BSA/milk in TBST with 1% NaN3) overnight at 4° C. […]
The effects of CL16 treatment on cell cycle checkpoint proteins were investigated with immunoblotting of the cell cycle checkpoint proteins in SW620 and HT29 cells after CL16 treatment for 24 h. […] Caspase- 3/7 Green Detection Reagent was used to study apoptosis in HCT116 cells treated with Rhosin by confocal fluorescence imaging. […]

[2] = target: T1, FLAG-RhoA (Homo sapiens, UniProt P61586); assay: CL16-alkyne labeling of FLAG-RhoA in HCT116 cells (anti-FLAG IP, CuAAC, in-gel fluorescence); type: cell-based; conditions: pre-incubation 2 h
T1 construct: expressed in transfected cells; host or cells: HCT116
Protocol: HCT116 cells transiently expressing FLAG-RhoA were pre-treated with solvent vehicle or CL16 for 2 h, followed by the incubation with CL16-alkyne in complete medium for another 2 h. The cells were then lysed and subjected to immunoprecipitation by anti-FLAG beads. The enriched proteins were reacted with rhodamine azide through copper-catalyzed azide-alkyne cycloaddition (CuAAC), boiled with sampling buffer and separated by SDS-PAGE. The protein bands were then visualized by their in-gel fluorescence or blotted for RhoA. […] HCT116 cells were pre-treated with solvent vehicle or CL16 for 2 h, followed by the incubation with CL16-alkyne in complete medium for another 2 h. The cells were then lysed, reacted with rhodamine azide through CuAAC, boiled with sampling buffer, separated by SDS-PAGE and imaged. […]
To identify protein target and any off-targets of CL16 in CRCs, a molecular probe of CL16, CL16-alkyne (FIG. 6A), was synthesized. […] The protein bands were then visualized by their in-gel fluorescence or blotted for RhoA. […] The probe-labeled proteins were installed with rhodamine through CuAAC, and visualized by their in-gel fluorescence after SDS-PAGE. A protein band with strong fluorescence was found at −22 kDa in the sample incubated with CL16-alkyne only, in line with the molecular weight of RhoA (FIG. 6C).

T1 sequence (P61586 whole entry): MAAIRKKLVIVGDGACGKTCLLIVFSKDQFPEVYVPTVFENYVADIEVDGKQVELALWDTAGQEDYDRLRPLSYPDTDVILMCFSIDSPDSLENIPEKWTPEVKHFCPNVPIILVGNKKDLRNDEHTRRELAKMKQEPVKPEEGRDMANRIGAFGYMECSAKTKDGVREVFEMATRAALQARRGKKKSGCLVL

competition with CL16-alkyne labeling of FLAG-RhoA [2]: competed with the alkyne probe labeling
Compound: O=C(CCl)N1N=C(c2cc3ccccc3o2)CC1c1ccco1 (stereo not drawn) [CL16]
cyclin A2 and cyclin B1 levels [1]: no significant changes
p21 and p27 protein levels [1]: increase in p21 and p27 protein levels
